US20220243210A1, “ANGIOTENSIN II TYPE 1 RECEPTOR TARGETED OLIGONUCLEOTIDES AND USES THEREOF” (Ionis Pharmaceuticals, Inc., priority 2019, published 2022)
Oligonucleotides are written 5' to 3', each unit as a sugar letter and its base; * is a phosphorothioate linkage, no mark a phosphodiester; rarer units and linkages stand in square brackets, end groups in braces. Plain capitals give the bases only. {Cy3} = Cy3 fluorescent dye label; k = constrained ethyl (cEt); [5mC] = 5-methylcytosine; d = 2'-deoxy (DNA)

System: mouse MALAT RNA
Assay: MALAT RNA reduction in vivo, C57BL6/J mice, with or without Losartan pretreatment
Settings: no Losartan, sacrifice 4 days after dose
Protocol: Compound Nos. 1213287 and 1295887 are described in Table 1 above. Compound Nos. 1213287 and 1295887 were tested in C57BL6/J mice with or without pretreatment with the AGTR1 antagonist, Losartan. The mice were divided into groups of 3 mice each. Mice receiving Losartan were treated with 150 mg/L in the drinking water for 10 days. Each mouse received a single IV dose on day 10 of either Compound No. 1213287 or 1295887 of either 1.2 or 3.6 μmol/kg. The mice were then sacrificed on day 14. Heart, adipose, adrenal, kidney, and liver tissue was then collected and homogenized and RNA analysis was performed. A group of 4 mice received PBS as a negative control.
RNA was extracted from heart, adipose, adrenal, kidney, and liver tissue for real-time PCR analysis of measurement of RNA expression of MALAT using primer probe set mMALAT1 #2 (forward sequence […] (SEQ ID NO: 5); reverse sequence […] (SEQ ID NO: 6); probe sequence […] (SEQ ID NO: 7)). Results are presented as percent change of RNA, relative to PBS control, normalized to mouse GAPDH.

Compound No. 1213287: Control unconjugated 19-nucleotide modified oligonucleotide TCAGCATTCTAATAGCAGC with a 3′ Cy3 label (antisense dTd[5mC]dAkG*k[5mC]*kA*dT*dT*d[5mC]*dT*dA*dA*dT*dA*dG*d[5mC]*kA*kG*k[5mC]-{Cy3}) [reference compound]
MALAT RNA (% control) (Adipose, single IV 1.2 μmol/kg): 78.0 % control | MALAT RNA (% control) (Adipose, single IV 3.6 μmol/kg): 53.0 % control | MALAT RNA (% control) (Adrenal, single IV 1.2 μmol/kg): 78.7 % control | MALAT RNA (% control) (Adrenal, single IV 3.6 μmol/kg): 50.0 % control | MALAT RNA (% control) (Heart, single IV 1.2 μmol/kg): 77.0 % control | MALAT RNA (% control) (Heart, single IV 3.6 μmol/kg): 57.3 % control | MALAT RNA (% control) (Kidney, single IV 1.2 μmol/kg): 58.3 % control | MALAT RNA (% control) (Kidney, single IV 3.6 μmol/kg): 42.3 % control | MALAT RNA (% control) (Liver, single IV 1.2 μmol/kg): 53.7 % control | MALAT RNA (% control) (Liver, single IV 3.6 μmol/kg): 35.0 % control
